From ChEMBL document CHEMBL1201862, “PubChem BioAssay data set” (2004)
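Grown in 96-well plates, cells were treated for 48 hours with each compound at five concentrations. Insufficient inhibition: endpoint recorded as highest concentration tested. Abbreviation: GI50, concentration required for 50% inhibition of growth.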 Calls of active or inactive are those of the source. No stated cut-off is given here; in the data, active = GI50 up to about 1.1 µM and inactive = higher.

How the values were obtained:
Experiment in all cases: inhibition of tumour cell growth, NCI panel, 48 h
786-0 = tested on: 786-0
A498 = tested on: A498
A549 = tested on: A549
ACHN = tested on: ACHN
BT-549 = tested on: BT-549
CAKI-1 = tested on: CAKI-1
CCRF-CEM = tested on: CCRF-CEM
COLO 205 = tested on: COLO 205
DU-145 = tested on: DU-145
EKVX = tested on: EKVX
HCC 2998 = tested on: HCC 2998
HCT-116 = tested on: HCT-116
HCT-15 = tested on: HCT-15
HL-60 = tested on: HL-60
HOP-62 = tested on: HOP-62
HT-29 = tested on: HT-29
Hs-578T = tested on: Hs-578T
K562 = tested on: K562
KM12 = tested on: KM12
LOX IMVI = tested on: LOX IMVI
M14 = tested on: M14
MCF7 = tested on: MCF7
MDA-MB-231 = tested on: MDA-MB-231
MDA-MB-435 = tested on: MDA-MB-435
MDA-N = tested on: MDA-N
MOLT-4 = tested on: MOLT-4
Malme-3M = tested on: Malme-3M
NCI-H226 = tested on: NCI-H226
NCI-H23 = tested on: NCI-H23
NCI-H460 = tested on: NCI-H460
NCI-H522 = tested on: NCI-H522
OVCAR-3 = tested on: OVCAR-3
OVCAR-4 = tested on: OVCAR-4
OVCAR-5 = tested on: OVCAR-5
OVCAR-8 = tested on: OVCAR-8
PC-3 = tested on: PC-3
RPMI-8226 = tested on: RPMI-8226
RXF 393 = tested on: RXF 393
SF-268 = tested on: SF-268
SF-295 = tested on: SF-295
SF-539 = tested on: SF-539
SK-MEL-28 = tested on: SK-MEL-28
SK-MEL-2 = tested on: SK-MEL-2
SK-MEL-5 = tested on: SK-MEL-5
SK-OV-3 = tested on: SK-OV-3
SN12C = tested on: SN12C
SNB-19 = tested on: SNB-19
SNB-75 = tested on: SNB-75
SR = tested on: SR
SW-620 = tested on: SW-620
T47D = tested on: T47D
TK-10 = tested on: TK-10
U-251 = tested on: U-251
UACC-257 = tested on: UACC-257
UACC-62 = tested on: UACC-62
UO-31 = tested on: UO-31
HOP-92 = tested on: HOP-92
IGROV-1 = tested on: IGROV-1
NCI/ADR-RES = tested on: NCI/ADR-RES

CC1(C)OC[C@@H](O)[C@H](C#N)CO1
GI50 (786-0): > 100 µM (inactive) | GI50 (A498): > 100 µM (inactive) | GI50 (A549): > 100 µM (inactive) | GI50 (ACHN): > 100 µM (inactive) | GI50 (BT-549): > 100 µM (inactive) | GI50 (CAKI-1): > 100 µM (inactive) | GI50 (CCRF-CEM): > 100 µM (inactive) | GI50 (COLO 205): > 100 µM (inactive) | GI50 (DU-145): > 100 µM (inactive) | GI50 (EKVX): > 100 µM (inactive) | GI50 (HCC 2998): > 100 µM (inactive) | GI50 (HCT-116): > 100 µM (inactive) | GI50 (HCT-15): > 100 µM | GI50 (HL-60): > 100 µM (inactive) | GI50 (HOP-62): > 100 µM (inactive) | GI50 (HT-29): > 100 µM (inactive) | GI50 (Hs-578T): > 100 µM (inactive) | GI50 (K562): > 100 µM (inactive) | GI50 (KM12): > 100 µM (inactive) | GI50 (LOX IMVI): > 100 µM (inactive) | GI50 (M14): > 100 µM (inactive) | GI50 (MCF7): > 100 µM (inactive) | GI50 (MDA-MB-231): > 100 µM (inactive) | GI50 (MDA-MB-435): > 100 µM (inactive) | GI50 (MDA-N): > 100 µM (inactive) | GI50 (MOLT-4): > 100 µM (inactive) | GI50 (Malme-3M): > 100 µM (inactive) | GI50 (NCI-H226): > 100 µM (inactive) | GI50 (NCI-H23): > 100 µM (inactive) | GI50 (NCI-H460): > 100 µM (inactive) | GI50 (NCI-H522): > 100 µM (inactive) | GI50 (OVCAR-3): > 100 µM (inactive) | GI50 (OVCAR-4): > 100 µM (inactive) | GI50 (OVCAR-5): > 100 µM (inactive) | GI50 (OVCAR-8): > 100 µM (inactive) | GI50 (PC-3): > 100 µM (inactive) | GI50 (RPMI-8226): > 100 µM (inactive) | GI50 (RXF 393): > 100 µM (inactive) | GI50 (SF-268): > 100 µM (inactive) | GI50 (SF-295): > 100 µM (inactive) | GI50 (SF-539): > 100 µM (inactive) | GI50 (SK-MEL-28): > 100 µM (inactive) | GI50 (SK-MEL-2): > 100 µM (inactive) | GI50 (SK-MEL-5): > 100 µM (inactive) | GI50 (SK-OV-3): > 100 µM (inactive) | GI50 (SN12C): > 100 µM (inactive) | GI50 (SNB-19): > 100 µM (inactive) | GI50 (SNB-75): > 100 µM (inactive) | GI50 (SR): > 100 µM (inactive) | GI50 (SW-620): > 100 µM (inactive) | GI50 (T47D): > 100 µM (inactive) | GI50 (TK-10): > 100 µM (inactive) | GI50 (U-251): > 100 µM (inactive) | GI50 (UACC-257): > 100 µM (inactive) | GI50 (UACC-62): > 100 µM (inactive) | GI50 (UO-31): > 100 µM (inactive)

CSc1nc(Cl)c2c(n1)Sc1nc3ccccc3n1C2O (stereo unspecified)
GI50 (786-0): 2.15 µM (inactive) | GI50 (A498): > 79.1 µM (inactive) | GI50 (A549): 7.38 µM (inactive) | GI50 (ACHN): 5.89 µM (inactive) | GI50 (BT-549): 4.73 µM (inactive) | GI50 (CAKI-1): 1.85 µM (inactive) | GI50 (CCRF-CEM): 1.36 µM (inactive) | GI50 (COLO 205): 2.64 µM (inactive) | GI50 (DU-145): 11.4 µM (inactive) | GI50 (EKVX): 33.4 µM (inactive) | GI50 (HCC 2998): 3.91 µM (inactive) | GI50 (HCT-116): 2.48 µM (inactive) | GI50 (HCT-15): 3.4 µM | GI50 (HOP-62): 13.8 µM (inactive) | GI50 (HOP-92): 5.31 µM (inactive) | GI50 (HT-29): 3.52 µM (inactive) | GI50 (Hs-578T): 5.36 µM (inactive) | GI50 (IGROV-1): 3.87 µM (inactive) | GI50 (K562): 3.71 µM (inactive) | GI50 (KM12): 3.44 µM (inactive) | GI50 (LOX IMVI): 0.861 µM (active) | GI50 (M14): 3.46 µM (inactive) | GI50 (MCF7): 4.02 µM (inactive) | GI50 (MDA-MB-231): 4.88 µM (inactive) | GI50 (MDA-MB-435): 3.63 µM (inactive) | GI50 (MDA-N): 2.86 µM (inactive) | GI50 (MOLT-4): 3.48 µM (inactive) | GI50 (Malme-3M): 4.91 µM (inactive) | GI50 (NCI-H226): 29.1 µM (inactive) | GI50 (NCI-H23): 5.65 µM (inactive) | GI50 (NCI-H460): 13.4 µM (inactive) | GI50 (NCI-H522): 2.73 µM (inactive) | GI50 (NCI/ADR-RES): 3.27 µM (inactive) | GI50 (OVCAR-3): 5.3 µM (inactive) | GI50 (OVCAR-4): 17.2 µM (inactive) | GI50 (OVCAR-5): 4.92 µM (inactive) | GI50 (OVCAR-8): 2.84 µM (inactive) | GI50 (PC-3): 4.29 µM (inactive) | GI50 (RPMI-8226): 2.85 µM (inactive) | GI50 (RXF 393): 1.58 µM (inactive) | GI50 (SF-268): 5.25 µM (inactive) | GI50 (SF-295): 21.3 µM (inactive) | GI50 (SF-539): 1.83 µM (inactive) | GI50 (SK-MEL-28): 6.79 µM (inactive) | GI50 (SK-MEL-2): 4.38 µM (inactive) | GI50 (SK-MEL-5): 2.5 µM (inactive) | GI50 (SK-OV-3): 47.9 µM (inactive) | GI50 (SN12C): 4.85 µM (inactive) | GI50 (SNB-19): 14.4 µM (inactive) | GI50 (SNB-75): 10.6 µM (inactive) | GI50 (SW-620): 3.52 µM (inactive) | GI50 (T47D): 15.3 µM (inactive) | GI50 (TK-10): 7.13 µM (inactive) | GI50 (U-251): 3.67 µM (inactive) | GI50 (UACC-257): 13.5 µM (inactive) | GI50 (UACC-62): 3.42 µM (inactive) | GI50 (UO-31): 3.44 µM (inactive)

CCCc1c(O)nc(Nc2nc3ccccc3[nH]2)[nH]c1=O
GI50 (786-0): > 100 µM (inactive) | GI50 (A498): > 100 µM (inactive) | GI50 (A549): > 100 µM (inactive) | GI50 (ACHN): > 100 µM (inactive) | GI50 (BT-549): > 100 µM (inactive) | GI50 (CAKI-1): > 100 µM (inactive) | GI50 (CCRF-CEM): 86.5 µM (inactive) | GI50 (COLO 205): > 100 µM (inactive) | GI50 (DU-145): > 100 µM (inactive) | GI50 (EKVX): > 100 µM (inactive) | GI50 (HCT-116): > 100 µM (inactive) | GI50 (HCT-15): > 100 µM | GI50 (HL-60): 84.9 µM (inactive) | GI50 (HOP-92): > 100 µM (inactive) | GI50 (HT-29): > 100 µM (inactive) | GI50 (Hs-578T): > 100 µM (inactive) | GI50 (IGROV-1): > 100 µM (inactive) | GI50 (K562): > 100 µM (inactive) | GI50 (KM12): > 100 µM (inactive) | GI50 (M14): > 100 µM (inactive) | GI50 (MDA-MB-231): > 100 µM (inactive) | GI50 (MDA-MB-435): > 100 µM (inactive) | GI50 (MDA-N): > 100 µM (inactive) | GI50 (MOLT-4): > 100 µM (inactive) | GI50 (Malme-3M): > 100 µM (inactive) | GI50 (NCI-H226): > 100 µM (inactive) | GI50 (NCI-H23): > 100 µM (inactive) | GI50 (NCI-H460): > 100 µM (inactive) | GI50 (NCI-H522): 71.3 µM (inactive) | GI50 (NCI/ADR-RES): > 100 µM (inactive) | GI50 (OVCAR-4): > 100 µM (inactive) | GI50 (OVCAR-5): > 100 µM (inactive) | GI50 (OVCAR-8): > 100 µM (inactive) | GI50 (PC-3): > 100 µM (inactive) | GI50 (RPMI-8226): > 100 µM (inactive) | GI50 (RXF 393): > 100 µM (inactive) | GI50 (SF-268): > 100 µM (inactive) | GI50 (SF-295): > 100 µM (inactive) | GI50 (SF-539): > 100 µM (inactive) | GI50 (SK-MEL-2): > 100 µM (inactive) | GI50 (SK-MEL-5): > 100 µM (inactive) | GI50 (SK-OV-3): > 100 µM (inactive) | GI50 (SN12C): > 100 µM (inactive) | GI50 (SNB-19): > 100 µM (inactive) | GI50 (SNB-75): > 100 µM (inactive) | GI50 (SR): > 100 µM (inactive) | GI50 (SW-620): > 100 µM (inactive) | GI50 (T47D): > 100 µM (inactive) | GI50 (TK-10): > 100 µM (inactive) | GI50 (U-251): > 100 µM (inactive) | GI50 (UACC-257): > 100 µM (inactive) | GI50 (UACC-62): > 100 µM (inactive) | GI50 (UO-31): > 100 µM (inactive)
